Experimental data from patent publication US20150094294A1, “COMPOUNDS AND METHODS FOR TREATING MALARIA” (Cellceutix Corporation, priority 2012, published 2015).
Converted amounts (≈) assume the structure as drawn.

How the values were obtained:
Assay type in all cases: cell-based
3T3 cells = assay: Cytotoxicity against 3T3 cells; conditions: for Cytotoxicity 3T3 EC50: 3T3 cells
[1] = system: P. falciparum DD2 (chloroquine-resistant); assay: Anti-malarial activity, P. falciparum DD2 culture, 72 hour, DNA content by flow cytometry; conditions: synchronized ring-stage parasites
Procedure: Numerous compounds were screened in cultures of the malaria parasite P. falciparum 3D7 (chloroquine-sensitive) and DD2 (chloroquine-resistant). The compounds were also screened for toxixcity against 3T3 cells, HepG2 cells, and in a hemolysis assay. In brief, P. falciparum parasites were cultured in RPMI 1640 (Invitrogen) supplemented with Albumax II (Invitrogen). For synchronization, schizont stage parasites were magnet purified using a SuperMACS™ II Cell Separation Unit (Miltenyi Biotech). For IC50 determinations, synchronized ring-stage parasites were plated at 0.5% parasitemia and 8% hematocrit in 96-well plates at a total volume of 50 μL. Serial dilutions of 2× concentration of the respective compound, ranging from 2.5 μM to 20 nM, were added to the wells to bring the total volume up to 100 μL and 4% hematocrit. Compounds were assayed for a 72 hour period, after which the cultures were fixed with a solution of 4% paraformaldehyde and 0.08% glutaraldhyde in PBS. The cells were then permeabilized with 0.25% Triton X-100, and SYTOX Green Nucleic Acid Stain (Invitrogen) in PBS was added to a final concentration of 5 μM. DNA content, as an indicator of parasitemia, was analyzed on an Accuri C6 Flow Cytometer with C-Sampler. IC50 curves were generated using GraphPad Prism (GraphPad Software).

[2] = system: P. falciparum 3D7 (chloroquine-sensitive); assay: Anti-malarial activity, P. falciparum 3D7 culture, 72 hour, DNA content by flow cytometry; conditions: synchronized ring-stage parasites
Procedure, shortened: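 Magnet-synchronized ring-stage parasites in RPMI 1640/Albumax II were plated at 0.5% parasitemia, 4% final hematocrit, with compound added as 2× dilutions (2.5 μM to 20 nM) for 72 h. Fixed, Triton-permeabilized cells were stained with SYTOX Green (5 μM final), and DNA content was measured by flow cytometry to derive IC50.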

HepG2 cells = assay: Cytotoxicity against HepG2 cells; conditions: for Cytotoxicity HepG2 EC50: HepG2 cells
[3] = Cytotoxicity against 3T3 cells; conditions: mouse, 3T3 cells; read-out: Cytotoxicity 3T3 EC50
in vitro = assay: in vitro
[4] = Cytotoxicity against HepG2 cells; conditions: human, HepG2 cells; read-out: Cytotoxicity HepG2 EC50
[5] = Plasmodium falciparum, 3D7, 72 h

Row | SMILES | IC50 [1] | IC50 [2] | IC50 ([1]; Plasmodium falciparum) | EC50 (in vitro) | IC50 [2, 5] | EC50 (3T3 cells) | EC50 (HepG2 cells) | EC50 [3] | EC50 [4] | Cytotoxicity 3T3 EC50 (3T3 cells) | Cytotoxicity HepG2 EC50 (HepG2 cells)
1 | CN(C)CCSc1cc(SCCN(C)C)c(C(F)(F)F)cc1NC(=O)c1cc(C(=O)Nc2cc(C(F)(F)F)c(SCCN(C)C)cc2SCCN(C)C)ncn1 [Compound 102] | 0.238 µM | 0.064 µM |  |  |  | < 2 µM | 49.8 µM |  |  |  | 
2 | N=C(N)NCCSc1cc(SCCNC(=N)N)c(C(F)(F)F)cc1NC(=O)c1cc(C(=O)Nc2cc(C(F)(F)F)c(SCCNC(=N)N)cc2SCCNC(=N)N)ncn1 [Compound 114] |  |  | 0.656 µM | 61 µg/mL (≈ 66.1 µM) | 0.672 µM |  |  | 31 µM | 57 µM |  | 
3 | N=C(N)NCCSc1cc(SCCN)c(NC(=O)c2cc(C(=O)Nc3cc(C(F)(F)F)c(SCCNC(=N)N)cc3SCCN)ncn2)cc1C(F)(F)F [Compound 115] |  |  | 0.664 µM | 35 µg/mL (≈ 41.7 µM) | 0.68 µM |  |  | 26 µM | 47 µM |  | 
4 | CC(C)(C)c1cc(N)c(SCCN)c(NC(=O)c2cccc(C(=O)Nc3cc(C(C)(C)C)cc(N)c3SCCN)n2)c1 [Compound 117] | 0.803 µM | 0.732 µM |  |  |  | 5 µM | 9 µM |  |  |  | 
5 | CCN(CC)CCN(CCN)c1c(NC(=O)Nc2cc(C(F)(F)F)cc([N+](=O)[O-])c2N(CCN)CCN(CC)CC)cc(C(F)(F)F)cc1[N+](=O)[O-] [Compound 123] | 0.331 µM | 0.157 µM |  |  |  | 284 µM | 433 µM |  |  |  | 
6 | N=C(N)NCCCCC(=O)Nc1ccc(-c2nnc(-c3ccc(NC(=O)CCCCNC(=N)N)cc3)o2)cc1 [Compound 131] |  |  | 0.065 µM | 212 µg/mL (≈ 397 µM) | 0.042 µM |  |  | 322 µM | 356 µM |  | 
7 | CC(N)C(=O)Nc1ccc(-c2ccc(-c3ccc(NC(=O)C(C)N)cc3)cc2)cc1 (stereo not drawn) [Compound 136] | 0.421 µM | 0.178 µM |  |  |  | > 1000 µM | > 1000 µM |  |  |  | 
8 | CC(C)(C)c1ccc(NC(=O)CCCCNC(=N)N)c(-c2ccc(-c3cc(C(C)(C)C)ccc3NC(=O)CCCCNC(=N)N)cc2)c1 [Compound 141] | 0.709 µM | 0.625 µM |  |  |  | 28 µM | 55 µM |  |  |  | 
9 | N=C(N)NCCCOc1cc(OCCCNC(=N)N)c(-c2ccccc2)cc1-c1ccccc1 [Compound 143] | 0.102 µM |  |  |  |  | 74 µM | 119 µM |  |  |  | 
10 | N=C(N)NCCCc1cccc(-c2ccc3c4ccc(-c5cccc(CCCNC(=N)N)c5)cc4n(CCCNC(=N)N)c3c2)c1 [Compound 155] |  |  | 0.457 µM | 6 µg/mL (≈ 9.73 µM) | 0.272 µM |  |  | 131 µM | 100 µM |  | 
11 | N=C(N)NCCCCC(=O)Nc1cc(C(F)(F)F)cc(NC(=O)c2cc(C(=O)Nc3cc(C(F)(F)F)cc(NC(=O)CCCCNC(=N)N)c3SCCC(=O)O)ncn2)c1SCCC(=O)O [Compound 168] |  |  | 0.098 µM | > 1000 µg/mL | 0.227 µM |  |  | > 100 µM | > 100 µM |  | 
12 | N=C(N)NCCCCC(=O)Nc1cc(Br)cc(NC(=O)c2cc(C(=O)Nc3cc(Br)cc(NC(=O)CCCCNC(=N)N)c3SCCO)ncn2)c1SCCO [Compound 170] |  |  | 0.591 µM | 59 µg/mL (≈ 62.7 µM) | 0.569 µM |  |  | 110 µM | 165 µM |  | 
13 | N=C(N)NCCOc1ccccc1C(=O)Nc1ccc2c(c1)Cc1cc(NC(=O)c3ccccc3OCCNC(=N)N)ccc1-2 [Compound 172] |  |  | 0.297 µM | 22 µg/mL (≈ 36.3 µM) |  |  |  |  |  | Insol. | Insol.
14 | N=C(N)NCCc1cc(Br)cc(C#Cc2cc(C#Cc3cc(Br)cc(CCNC(=N)N)c3)cc(C(F)(F)F)c2)c1 [Compound 179] |  |  | 0.795 µM | 22 µg/mL (≈ 32.6 µM) | 0.88 µM |  |  |  |  | insol | insol

Further lines, with some results ahead:

Row | IC50 [1] | IC50 [2] | IC50 ([1]; Plasmodium falciparum) | EC50 (in vitro) | IC50 [2, 5] | SMILES | EC50 (3T3 cells) | EC50 (HepG2 cells) | EC50 [3] | EC50 [4] | Cytotoxicity 3T3 EC50 (3T3 cells) | Cytotoxicity HepG2 EC50 (HepG2 cells)
15 | 0.207 µM | 0.147 µM |  |  |  | O=C(Nc1cc(C(F)(F)F)c(OC2CCNC2)cc1OC1CCNC1)c1cc(C(=O)Nc2cc(C(F)(F)F)c(OC3CCNC3)cc2OC2CCNC2)ncn1 (stereo not drawn) [Compound 103] | 256 µM | 382 µM |  |  |  | 
16 |  |  | 0.398 µM | 39 µg/mL (≈ 48.6 µM) | 0.706 µM | N=C(N)NCCCc1cc(SCCN)c(NC(=O)c2cc(C(=O)Nc3cc(C(F)(F)F)c(CCCNC(=N)N)cc3SCCN)ncn2)cc1C(F)(F)F [Compound 116] |  |  | 76 µM | 95 µM |  | 
17 | 0.0459 µM | 0.083 µM |  |  |  | N=C(N)NCCSc1ccc(NC(=O)Nc2ccc(SCCNC(=N)N)c(C(F)(F)F)c2)cc1C(F)(F)F [Compound 120] | 65.1 µM | 165 µM |  |  |  | 
18 |  |  | 0.886 µM | 58 µg/mL (≈ 67.1 µM) | 0.881 µM | N=C(N)NCCCCOc1cc(OCCCCNC(=N)N)c(C(F)(F)F)cc1NC(=O)Nc1cc(C(F)(F)F)c(OCCCCNC(=N)N)cc1OCCCCNC(=N)N [Compound 128] |  |  | 121 µM | 232 µM |  | 
19 |  |  | 0.331 µM | 123 µg/mL (≈ 227 µM) | 0.308 µM | NCCN1CCc2ccc(NC(=O)c3cc(C(=O)Nc4ccc5c(c4)CCN(CCN)CC5)ncn3)cc2CC1 [Compound 146] |  |  | 373 µM | 373 µM |  | 
20 |  |  | 0.829 µM | 560 µg/mL (≈ 1040 µM) | 0.696 µM | CC(C)N1CCc2ccc(NC(=O)c3cc(C(=O)Nc4ccc5c(c4)CCN(C(C)C)CC5)ncn3)cc2CC1 [Compound 147] |  |  | > 100 µM | > 100 µM |  | 
21 |  |  | 0.244 µM | 299 µg/mL (≈ 520 µM) | 0.322 µM | N=C(N)NCCCCC(=O)Nc1ccc(Oc2cccc(Oc3ccc(NC(=O)CCCCNC(=N)N)cc3)c2)cc1 [Compound 157] |  |  | > 100 µM | > 100 µM |  | 
22 |  |  | 1.09 µM | 17 µg/mL (≈ 28.6 µM) | 0.655 µM | FC(F)(F)c1ccc(CN2CCNCC2)cc1Oc1ccc(Oc2cc(CN3CCNCC3)ccc2C(F)(F)F)cc1 [Compound 158] |  |  | 14 µM | 29 µM |  | 
23 |  |  | 0.98 µM | 15 µg/mL (≈ 30.3 µM) | 0.61 µM | Fc1cc(NC2CCNCC2)cc(Oc2ccc(Oc3cc(F)cc(NC4CCNCC4)c3)cc2)c1 [Compound 164] |  |  | 23 µM | 78 µM |  | 
24 |  |  | 1.23 µM | 364 µg/mL (≈ 798 µM) | 0.991 µM | NCc1cc(C(F)(F)F)ccc1Oc1ccc(Oc2ccc(C(F)(F)F)cc2CN)cc1 [Compound 166] |  |  | 17 µM | 71 µM |  | 
25 |  |  | 0.951 µM | 7 µg/mL (≈ 7.01 µM) | 0.724 µM | N=C(N)NCCCCOc1cc(OCCCCNC(=N)N)c(C(F)(F)F)cc1NC(=O)Nc1ccc(NC(=O)Nc2cc(C(F)(F)F)c(OCCCCNC(=N)N)cc2OCCCCNC(=N)N)cc1 [Compound 167] |  |  | 37 µM | 60 µM |  | 
26 |  |  | 0.274 µM | > 1000 µg/mL | 0.204 µM | N=C(N)NCCCCC(=O)Nc1ccc(-c2ccc(NC(=O)CCCCNC(=N)N)c(C(F)(F)F)c2)cc1C(F)(F)F [Compound 173] |  |  | > 2000 µM | > 2000 µM |  | 
27 |  |  | 0.393 µM | 1 µg/mL (≈ 1.47 µM) | 0.593 µM | NCCSc1ccc(C(F)(F)F)cc1C(=O)Nc1ccc(-c2ccc(NC(=O)c3cc(C(F)(F)F)ccc3SCCN)cc2)cc1 [Compound 174] |  |  | < 16 µM | < 16 µM |  | 
28 |  |  | 0.564 µM | > 1000 µg/mL | 0.423 µM | COc1ccc(CN)cc1NC(=O)c1cc(C(=O)Nc2cc(CN)ccc2OC)ncn1 [Compound 175] |  |  | 302 µM | 362 µM |  | 
29 |  |  | 0.74 µM | > 1000 µg/mL | 0.688 µM | NCCSc1c(N)cc(C(F)(F)F)cc1NC(=O)c1cn(C2CC2)c2cc(N3CCNCC3)c(F)cc2c1=O [Compound 181] |  |  | 81 µM | 154 µM |  | 
